One data set deals with PDH. Conditions: cited from earlier work.
For data set [1] the following is noted: cited from earlier work.

Molecules are shown by their SMILES.

`COc1cc(S(=O)(=O)Nc2ccccc2)c(OC)cc1NC(=O)[C@@](C)(O)C(F)(F)F` had a melting point of 194 to 195 °C.
In the case of `O=C(O)C(Cl)Cl` [DCA, dichloroacetic acid], the “activity of PDH” value in the data set with PDH (after acute administration in animals) is “increases the activity of PDH”. Besides, the “proportion of PDH in its active form” value with PDH (single administration, 150 mg/kg, intraperitoneally) was “increased the proportion of PDH in its active form”. Besides, the glycaemia entry in data set [1] (Stacpoole et al., 1978) was “reducing glycaemia”. Also, the plasma glucose entry in data set [1] (after repeated administration) is listed as “significant decrease in plasma glucose”.
